Measurements as given in ChEMBL document CHEMBL4725281, “Design synthesis and evaluation of novel aldose reductase inhibitors: The case of indolyl-sulfonyl-phenols” (Bioorg Med Chem, 2020).

Experiments:
[1] = target: Aldo-keto reductase family 1 member B1 (Rattus norvegicus, UniProt P07943); assay: Inhibition of Fischer 344 rat eye lens ALR2 using D,L-glyceraldehyde as substrate measured up to 4 mins at 30 degC using NaHCO3/DMSO-dissolved compound by spectrophotometric analysis
[2] = target: Aldo-keto reductase family 1 member A1 (Rattus norvegicus, UniProt P51635); assay: Inhibition of Fischer 344 rat kidney ALR1 using sodium D-glucuronate as substrate measured up to 4 mins at […] using NaHCO3/DMSO-dissolved compound by spectrophotometric analysis
Chain of Aldo-keto reductase family 1 member A1 (P51635 whole entry, looked up): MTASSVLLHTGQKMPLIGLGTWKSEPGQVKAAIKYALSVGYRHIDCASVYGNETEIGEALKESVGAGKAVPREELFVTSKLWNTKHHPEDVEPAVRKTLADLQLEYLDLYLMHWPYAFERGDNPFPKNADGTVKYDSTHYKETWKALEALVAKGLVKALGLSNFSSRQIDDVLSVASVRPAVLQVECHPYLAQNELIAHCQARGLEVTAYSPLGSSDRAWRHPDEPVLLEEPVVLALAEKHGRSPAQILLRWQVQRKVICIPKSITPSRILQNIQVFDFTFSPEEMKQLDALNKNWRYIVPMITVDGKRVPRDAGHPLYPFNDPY

[3] = species: Rattus norvegicus; assay: Selectivity index, ratio of IC50 for Fischer 344 rat kidney ALR1 using sodium D-glucuronate as substrate measured up to 4 mins at 30 degC to IC50 for Fischer 344 rat eye lens ALR2 using D,L-glyceraldehyde as substrate measured up to 4 mins at 30 degC; settings: time min <=4
[4] = target: Aldo-keto reductase family 1 member B1 (Rattus norvegicus) (UniProt P07943); assay: Inhibition of Fischer 344 rat eye lens ALR2 using D,L-glyceraldehyde as substrate measured up to 4 mins at 30 degC NaHCO3/DMSO-dissolved compound at 100 uM by spectrophotometric analysis relative to control; settings: time min <=4

| Structure (SMILES) | IC50 [1] | IC50 [2] | Ratio IC50 [3] | inhibition [4] |
| --- | --- | --- | --- | --- |
| O=S(=O)(c1ccc(O)cc1)c1c[nH]c2ccccc12 | 59.6 µM |  |  |  |
| O=S(=O)(c1ccc(O)cc1)n1ccc2ccccc21 | 4.51 µM | 4.73 µM | 1.05 |  |
| O=S(=O)(c1cc2ccccc2[nH]1)c1ccccc1O |  |  |  | 12.3% |
| O=S(=O)(c1ccc(O)cc1)c1cc2ccccc2[nH]1 | 37.3 µM |  |  |  |
| O=S(=O)(c1ccccc1O)c1c[nH]c2ccccc12 |  |  |  | 14.6% |

More lines, now with the values ahead:

| IC50 [1] | IC50 [2] | Ratio IC50 [3] | inhibition [4] | Structure (SMILES) |
| --- | --- | --- | --- | --- |
| 0.98 µM | 11.7 µM | 11.9 |  | O=S(=O)(c1ccc(O)c(F)c1)n1ccc2ccccc21 |
| 14.2 µM |  |  |  | O=S(=O)(c1ccccc1O)n1ccc2ccccc21 |
